Test system: Proteus strains (583 clinical isolates)
Test: Antimicrobial susceptibility testing (AST) on frozen reference panels, minimal inhibitory concentration (MIC) read visually
Format: cell-based, Proteus mirabilis, Proteus penneri and Proteus vulgaris
Settings: classical AST
Description: The inventors selected 583 Proteus strains from the microbiology strain collection at Siemens Healthcare Diagnostics (West Sacramento, Calif.) for susceptibility testing and whole genome sequencing.
Frozen reference AST panels were prepared following Clinical Laboratory Standards Institute (CLSI) recommendations. The following antimicrobial agents (with μg/ml concentrations shown in parentheses) were included in the panels: Amoxicillin/K Clavulanate (0.5/0.25-64/32), Ampicillin (0.25-128), Ampicillin/Sulbactam (0.5/0.25-64/32), Aztreonam (0.25-64), Cefazolin (0.5-32), Cefepime (0.25-64), Cefotaxime (0.25-128), Ceftazidime (0.25-64), Ceftriaxone (0.25-128), Cefuroxime (1-64), Cephalothin (1-64), Ciprofloxacin (0.015-8), Ertepenem (0.12-32), Gentamicin (0.12-32), Imipenem (0.25-32), Levofloxacin (0.25-16), Meropenem (0.12-32), Piperacillin/Tazobactam (0.25/4-256/4), Tetracycline (0.5-64), Tobramycin (0.12-32), and Trimethoprim/Sulfamethoxazole (0.25/4.7-32/608). […]
Isolates were cultured on trypticase soy agar with 5% sheep blood (BBL, Cockeysville, Md.) and incubated in ambient air at 35±1° C. for 18-24 h. […] Panel results were read visually, and minimal inhibitory concentrations (MIC) were determined.
Proteus strains to be tested were seeded on agar plates and incubated under growth conditions for 24 hours. […] Bacterial growth was determined by observing turbidity. […]

For CC1(C)S[C@@H]2[C@H](NC(=O)[C@H](N)c3ccccc3)C(=O)N2[C@H]1C(=O)O [ampicillin, Ampicillin], which “resistance of Proteus observed against the agent” value is on record?
Its value is “high resistance”.

— US20190032115A1, “GENETIC TESTING FOR […] GRAM-NEGATIVE PROTEUS AGAINST ANTIMICROBIAL AGENTS” (Ares Genetics GmbH, priority 2015, published 2019)
